Measured values reported in patent US4526776A, “Cationic cyanato and thiocyanato complexes useful as radiodiagnostic agents” (E. I. du Pont de Nemours & Company, priority 1983, dated 1985).

How the values were obtained:
[1] = test system: hepatobiliary transit; settings: commercially available agent, species not stated; cited from earlier work
[2] = test system: hepatobiliary transit (liver, gall bladder and gastro-intestinal tract); test: Visualization of hepatobiliary transit, sequential scintillation camera images after intravenous injection; format: in vivo, rabbit (male New Zealand Albino); settings: rabbit, >1 mCi (Disofenin: at least 1 mCi)
Method: A lyophylized vial of HEPATOLITE™ (New England Nuclear Corporation's brand of Technetium Tc99m Disofenin) is labelled with ^99m Tc-pertechnetate in accordance with manufacturer's directions. At least 1 mCi of the labelled preparation is injected intravenously into a 2.5 Kg male New Zealand Albino rabbit. The rabbit is positioned under a Searle Pho-Gamma scintallation camera in such a way that the liver and gastro-intestinal tract are within the field of view.
Greater than 1 mCi of the ^99m Tc-Thiocyanato-DMPE complex from either Example 1 or 2 is injected into a rabbit as in Example 3.

Compound | time to obtain an image of the hepatobiliary transit [1] [min] | sequential images of hepatobiliary transit, passage and image quality [2] | time to sequential images of hepatobiliary transit (liver, gall bladder and gastro-intestinal tract) [2]
CC(C)c1cccc(C(C)C)c1NC(=O)CN(CC(=O)O)CC(=O)O.[99Tc] [Disofenin, Technetium Tc99m Disofenin, reference compound] | ≤ 30 | initial liver uptake with gradual visualization of the gall bladder and gastro-intestinal tract, analogous to the diagnostically efficacious results obtained in clinical studies of normal healthy humans | about 30 minutes
^99m Tc-Thiocyanato - DMPE Complex [Example 2] |  | rapid passage and comparable image quality of the liver, gall bladder and gastro-intestinal tract | about 10 minutes
